Experimental data published in US12404532B2, “Composition for producing glucosylated steviol glycoside including glucosyltransferase and method of producing glucosylated steviol glycoside using the same” (CJ CHEILJEDANG CORPORATION, priority 2019, dated 2025).
Entries after “also recorded” stand apart in the source; their conditions may differ.

B1: 75 kDa protein of Fraction No. 2: 75 kDa protein purified from Lactobacillus mali culture, identified by LC-MS as amino acid sequence SEQ ID NO: 1; glucosyltransferase (protein, listed as Lactobacillus mali)
chain: MDQMVLETQQWLNKTYGGVSGFGSVTEDGLTGWGTVYGLTRALQHELGITGLVNNFGPTSKQKFNNIAKTIVVGYTGNIAYIIQGGFWCKGITPGEFDGKFSADTASAVTTMKTKAGLADTSSSVDGNFMAALLNMSSFDLLTGGDSKVREMQQQLNHDYLAYTGILPCDGIYQRDTNSALIYALQAEEKISTSVATGAYGATTKKDTPTVKEGTTNNFVRILQWGLYVNNKAYTGAFDGVYDSAVVAAVKEFEETMALDSTDGTSAGVDIFMSLLTSAGNPDRSAIACDTSYQLNATRVATLKNAGYSIVGRYLTGTVGSGTSERAKNLTTDEITAITTGGLKIFPIYQDGASDKEAYFTAAQGKTDGTKAVYAAQDLGFKEGVVIYFAVDADIQAGDIAGSAKVYFEALYDIVTSYGYEVGIYGTRNVSATIISAGLATKAFISDMSTGYSGNLGYSIPDEWAFDQFSEISIGDFAIDKDATTSARETATGSFGVGGESGYGNAEDLAKINTIIDALSQKKNFSYLSGLKIEKTSKEYEIPGFAVDFYVQVKFEASVSEPGDNVGVVYNVSNGKFESDFTDTIAGVVALSDEINKEDINSALTELSSLINNGQIWVEPVTKGSDAGIALHIKSTFDHTLDSGETIELEYEIIIDEIFHKIEVVPTGVPNTTANDYNSLFPNGIKEFVGFSIVAGLATGGIYYVVTAVGATAAVVTTSILALIALLKNNDTGV

What was measured:
[1] = test system: enzyme including the amino acid sequence of SEQ ID NO: 1; assay: Glucose transfer to steviol glycoside by purified recombinant enzyme (HPLC); format: biochemical, Lactobacillus mali; details: 6% substrate, 6% white sugar, 50 mM sodium acetate buffer pH 5.0, 40 °C, 24 hours, purified enzyme of Example 5-1
Procedure: A polynucleotide encoding the amino acid sequence of SEQ ID NO: 1 was prepared by a polynucleotide synthesis method (Bioneer Corp.), and the obtained polynucleotide was inserted into a pBT7-N-His vector, which was then transformed into E. coli BL21(DE3). The transformed E. coli was smeared on a plate medium containing ampicillin to obtain a recombinant strain (microorganism).
The recombinant E. coli strain was seeded in 5 mL of an LB medium containing ampicillin, and seed culture was carried out at 37° C. until optical density at 600 nm reached 2.0. The seed culture broth was added to 500 mL of an LB medium containing ampicillin, and main culture was carried out. Thereafter, when optical density at 600 nm reached 0.4, 0.1 mM isopropyl β-D-thiogalactopyranoside (IPTG) was added to induce mass-expression of the enzyme including the amino acid sequence of SEQ ID NO: 1. During the process, an agitation speed was 180 rpm, and culture temperature was maintained at 37° C. After IPTG addition, the agitation speed was 120 rpm, and culture temperature was maintained at 16° C.
The culture broth was centrifuged at 10,000×g at 4° C. for 20 minutes to obtain a cell pellet. A 50 mM tris-HCl buffer solution was added to the pellet, and re-suspended as a cell solution. The cell solution was sonicated using a sonicator. […]

[2] = test system: Lactobacillus mali crude enzyme solution including the enzyme including the amino acid sequence of SEQ ID NO: 1; assay: Glucose transfer to steviol glycoside by crude enzyme solution (HPLC); format: biochemical; details: 6% substrate, 6% white sugar, 50 mM sodium acetate buffer pH 5.0, 40 °C, 24 hours
Procedure: 6% Rebaudioside A (purecircle) or 6% Stevioside (carbosynth), and 6% white sugar (CJ CheilJedang) were dissolved in a 50 mM sodium acetate buffer (pH 5.0), and then the Lactobacillus mali crude enzyme solution including the enzyme including the amino acid sequence of SEQ ID NO: 1 was added thereto, and allowed to react at 40° C. for 24 hours. Thereafter, whether glucosylated Rebaudioside A or glucosylated Stevioside was produced was confirmed by HPLC, and the results are shown in FIGS. 2 to 5. Meanwhile, HPLC analysis conditions are as follows:
FIGS. 2 and 4 show HPLC analysis results before the enzyme reaction, and FIGS. 3 and 5 show HPLC analysis results after the enzyme reaction.

[3] = Panel evaluation of actual sweetness and quality of sweetness; details: for Actual Sweetness / Evaluation of Quality of Sweetness: dissolved in water, provided to panels
Text: The known material (i.e., α-(1,4) glucosylated Rebaudioside A) and the α-(1,6) glucosylated Rebaudioside A of Example 4 were independently dissolved in water and provided to panels for evaluation of actual sweetness and quality of sweetness.

[4] = format: physicochemical
Procedure: The solubility of steviol glycoside and glucosylated steviol glycoside was measured.
Specifically, the solubility of Rebaudioside A (RA), Stevioside (STV), glucosylated Rebaudioside A (RA-Glu) of Example 4, and glucosylated Stevioside (STV-Glu) of Example 4 was measured, respectively.
Each 6 g of Rebaudioside A, Stevioside, glucosylated Rebaudioside A, and glucosylated Stevioside was mixed with 10 mL, and then dissolved by sonication at 50° C. for 60 minutes. The resultant was incubated for 1 week in a water bath at 5° C., 15° C., 25° C., 35° C., 45° C., or 55° C. Thereafter, the resulting solution was centrifuged at 12,000 rpm for 10 minutes, and 1 mL of the supernatant was collected and dried in an oven at 105° C. to measure the solubility, which is shown in Table 4.

[5] = Sugar hydrolysis activity by reducing sugar determination method (DNS method); format: biochemical; details: 200 mM sugar solution, 40 °C, 10 minutes
Procedure: To confirm the presence of the desired enzyme, sugar hydrolysis activity of each fraction was examined by a reducing sugar determination method (DNS method).
A 200 mM sugar solution and each fraction were mixed at a ratio of 1:1 in a 50 mM sodium acetate buffer, and allowed to react in a water bath at 40° C. for 10 minutes, followed by inactivation at 100° C. A DNS reagent was added thereto at a ratio of 1:3, and then mixed and allowed to react at 100° C. for 5 minutes, and then DNS reaction was immediately stopped on ice. Thereafter, optical density (OD) of the DNS reagent was measured at 575 nm, and the activity was confirmed from a constructed fructose standard curve. At this time, 1 unit is defined by the amount (mL) of an enzyme that produces 1 μmole of fructose per 1 minute.

Molecule	Conversion rate into glucosylated steviol glycoside [2]	Actual Sweetness [3]	Solubility (%) [4]	Solubility as compared with Stevioside and Rebaudioside A, respectively [4]	other results
C=C1C[C@@]23CC[C@H]4[C@@](C)(CCC[C@@]4(C)C(=O)O[C@@H]4O[C@H](CO)[C@@H](O)[C@H](O)[C@H]4O)[C@@H]2CC[C@]1(O[C@@H]1O[C@H](CO)[C@@H](O)[C@H](O[C@@H]2O[C@H](CO)[C@@H](O)[C@H](O)[C@H]2O)[C@H]1O[C@@H]1O[C@H](CO)[C@@H](O)[C@H](O)[C@H]1O)C3 [RA, Rebaudioside A, reference compound]	about 90%				Conversion rate into glucosylated Rebaudioside A [1]: about 90%
C=C1C[C@@]23CC[C@H]4[C@@](C)(CCC[C@@]4(C)C(=O)O[C@@H]4O[C@H](CO[C@H]5O[C@H](CO)[C@@H](O)[C@H](O)[C@H]5O)[C@@H](O)[C@H](O)[C@H]4O)[C@@H]2CC[C@]1(O[C@@H]1O[C@H](CO)[C@@H](O)[C@H](O[C@@H]2O[C@H](CO)[C@@H](O)[C@H](O)[C@H]2O)[C@H]1O[C@@H]1O[C@H](CO)[C@@H](O)[C@H](O)[C@H]1O)C3 [RA-Glu, glucosylated Rebaudioside A]		26	≥ 40 ↑ %	remarkably increased solubility	Evaluation of Quality of Sweetness ([3]; listed as α-(1,6) glucosylated Rebaudioside A): better quality of sweetness; also recorded: Gives sweet taste in the beginning, has; Sweetness as compared with the α-(1,4) glucosylated Rebaudioside A ([3]; summary of Table 5): high sweetness
C=C1C[C@@]23CC[C@H]4[C@@](C)(CCC[C@@]4(C)C(=O)O[C@@H]4O[C@H](CO)[C@@H](O)[C@H](O)[C@H]4O)[C@@H]2CC[C@]1(O[C@@H]1O[C@H](CO)[C@@H](O)[C@H](O)[C@H]1O[C@@H]1O[C@H](CO)[C@@H](O)[C@H](O)[C@H]1O)C3 [STV, Stevioside, reference compound]	about 90%				
C=C1C[C@@]23CC[C@H]4[C@@](C)(CCC[C@@]4(C)C(=O)O[C@@H]4O[C@H](CO[C@H]5O[C@H](CO)[C@@H](O)[C@H](O)[C@H]5O)[C@@H](O)[C@H](O)[C@H]4O)[C@@H]2CC[C@]1(O[C@@H]1O[C@H](CO)[C@@H](O)[C@H](O)[C@H]1O[C@@H]1O[C@H](CO)[C@@H](O)[C@H](O)[C@H]1O)C3 [STV-Glu, glucosylated Stevioside]			≥ 40 ↑ %	remarkably increased solubility	
α-(1,4) glucosylated Rebaudioside A [reference compound]		19			Evaluation of Quality of Sweetness [3]: Bitter taste is stronger than sweet taste,
B1					Sugar hydrolysis activity [5]: had sugar hydrolysis activity
